# Data published in patent US11564912B2, “Methods for treating irritable bowel syndrome (IBS)” (Salix Pharmaceuticals, Inc., priority 2008, dated 2023).
# Key:
# [1] = system: patients with nonconstipation irritable bowel syndrome (non-C IBS); assay: Trial of rifaximin 550 mg TID for 14 days with 10-week follow-up (Example 5; Study 2 of Example 6); assay type: in vivo, human
# Description: A measure of efficacy is based on subjects' answers to the Weekly Subject Global Assessment (SGA) questions over the 4 week study duration in relation to their IBS symptoms. […] Another measure of efficacy is based on subjects' answers to the Weekly Subject Global Assessment (SGA) question over the 4 week study duration in relation to their IBS symptom of bloating. The SGA question is asked weekly as follows: “In the past 7 days, have you had adequate relief of your IBS symptom of bloating?” (Yes/No). […] Other measures of efficacy include the changes in dIBS symptoms from baseline to each week of the 4 weeks in the study (e.g., abdominal pain and discomfort, bloating, number of stools per day, stool consistency, urgency with loose or watery stools).
# The primary efficacy endpoint of the study was the proportion of subjects who achieve adequate relief of IBS symptoms for at least 2 weeks during 10 the first 4 weeks of the 10-week follow-up phase.
# Two measures of efficacy were assessed.
# Subjects were questioned on the relief of overall IBS symptoms and bloating. […] The analyses defined success as a “yes” response to questions regarding adequate relief.
# Assessment (SGA) questions over the 4 week study duration in relation to their IBS symptoms. […] Another measure of efficacy is based on subjects' answers to the Weekly Subject Global Assessment (SGA) question over the 4 week study duration in relation to their IBS symptom of bloating. The SGA question is asked weekly as follows: “In the past 7 days, have you had adequate relief of your IBS symptom of bloating'?” (Yes/No).
# All subpopulations in the study responded to therapy. Baseline severity was determined during screening for Abdominal Pain/Discomfort and Bloating, and the number, type (normal, hard, loose) and urgency of bowel movements. Duration of effect was assessed in a ten week follow-up period.
# A measure of efficacy is based on subjects' answers to the Weekly Subject Global Assessment (SGA) questions over the study duration in relation to their IBS symptoms.
# [2] = system: patients with nonconstipation irritable bowel syndrome (non-C IBS); assay: as above; assay type: in vivo, human; remark: listed apart in the source
# [3] = Age Group: <65, Rifaximin 550 mg TID (N = 281)
# [4] = Age Group: >=65, Rifaximin 550 mg TID
# [5] = Gender: Female, Rifaximin 550 mg TID (N = 226)
# [6] = Gender: Male, Rifaximin 550 mg TID (N = 85)
# [7] = IBS Subtype: Alternating-predominant, Rifaximin 550 mg TID
# [8] = IBS Subtype: Diarrhoea-predominant, Rifaximin 550 mg TID
# [9] = Population: ITT, Rifaximin 550 mg TID (N = 315)
# [10] = Population: PP, Rifaximin 550 mg TID (N = 311)
# [11] = Population: PP, Rifaximin 550 mg TID (N = 311), Weeks 3 through 6
# [12] = Race: Non-White, Rifaximin 550 mg TID (N = 31)
# [13] = Race: White, Rifaximin 550 mg TID (N = 280)
# [14] = Rifaximin 550 mg TID (N = 315), weekly SGA, at least 2 of Weeks 3 through 6, LOCF
# [15] = Study 2, at least 2 out of 4 weeks adequate relief during weeks 3 through 6 (weekly question)
# [16] = Study 2, at least 2 weeks during PEP
substance,measurement,setting,value
"(2S,16Z,18E,20S,21S,22R, 23R,24R,25S,26S,27S,28E)-5,6,21,23,25 Pentahydroxy-27-methoxy -2,4,11,16,20,22,24,26-octamethyl-2,7-(epoxypentadeca-(1,11,13)trienimino)benzofuro (4,5-e) pyrido(1,2,-a) benzimidazole-1,15(2H)-dione,25-acetate [Rifaximin]",Adequate relief of IBS related symptoms (SGA) and IBS-related bloating (IBS-B),[1]; 550 mg TID for 2 weeks,statistically significant relief
same,Adequate Relief of IBS symptom of Bloating: Failure,[1]; [3],171 (60.9%) N (%)
same,Adequate Relief of IBS symptom of Bloating: Success,[1]; [3],110 (39.1%) N (%)
same,Adequate Relief of IBS symptoms: Failure,[1]; [3],171 (60.9%) N (%)
same,Adequate Relief of IBS symptoms: Success,[1]; [3],110 (39.1%) N (%)
same,Adequate Relief of IBS symptom of Bloating: Failure,[1]; [4],16 (53.3%) N (%)
same,Adequate Relief of IBS symptom of Bloating: Success,[1]; [4],14 (46.7%) N (%)
same,Adequate Relief of IBS symptoms: Failure,[1]; [4],16 (53.3%) N (%)
same,Adequate Relief of IBS symptoms: Success,[1]; [4],14 (46.7%) N (%)
same,Adequate Relief of IBS symptom of Bloating: Failure,[1]; [5],128 (56.6%) N (%)
same,Adequate Relief of IBS symptom of Bloating: Success,[1]; [5],98 (43.4%) N (%)
same,Adequate Relief of IBS symptoms: Failure,[1]; [5],130 (57.5%) N (%)
same,Adequate Relief of IBS symptoms: Success,[1]; [5],96 (42.5%) N (%)
same,Adequate Relief of IBS symptom of Bloating: Failure,[1]; [6],59 (69.4%) N (%)
same,Adequate Relief of IBS symptom of Bloating: Success,[1]; [6],26 (30.6%) N (%)
same,Adequate Relief of IBS symptoms: Failure,[1]; [6],57 (67.1%) N (%)
same,Adequate Relief of IBS symptoms: Success,[1]; [6],28 (32.9%) N (%)
same,Adequate Relief of IBS symptom of Bloating: Failure,[1]; [7],19 (55.9%) N (%)
same,Adequate Relief of IBS symptom of Bloating: Success,[1]; [7],15 (44.1%) N (%)
same,Adequate Relief of IBS symptoms: Failure,[1]; [7],21 (61.8%) N (%)
same,Adequate Relief of IBS symptoms: Success,[1]; [7],13 (38.2%) N (%)
same,Adequate Relief of IBS symptom of Bloating: Failure,[1]; [8],168 (60.6%) N (%)
same,Adequate Relief of IBS symptom of Bloating: Success,[1]; [8],109 (39.4%) N (%)
same,Adequate Relief of IBS symptoms: Failure,[1]; [8],166 (59.9%) N (%)
same,Adequate Relief of IBS symptoms: Success,[1]; [8],111 (40.1%) N (%)
same,Adequate Relief of IBS symptom of Bloating Based on Daily Measures: Failure,[1]; [9],182 (57.8%) N (%)
same,Adequate Relief of IBS symptom of Bloating Based on Daily Measures: Success,[1]; [9],133 (42.2%) N (%)
same,Adequate Relief of IBS symptoms Based on Daily Measures: Failure,[1]; [9],200 (63.5%) N (%)
same,Adequate Relief of IBS symptoms Based on Daily Measures: Success,[1]; [9],115 (36.5%) N (%)
same,Adequate Relief of IBS symptom of Bloating Based on Daily Measures: Failure,[1]; [10],180 (57.9%) N (%)
same,Adequate Relief of IBS symptom of Bloating Based on Daily Measures: Success,[1]; [10],131 (42.1%) N (%)
same,Adequate Relief of IBS symptoms Based on Daily Measures: Failure,[1]; [10],196 (63.0%) N (%)
same,Adequate Relief of IBS symptoms Based on Daily Measures: Success,[1]; [10],115 (37.0%) N (%)
same,Adequate Relief of IBS symptom of Bloating: Failure,[1]; [11],187 (60.1%) N (%)
same,Adequate Relief of IBS symptom of Bloating: Success,[1]; [11],124 (39.9%) N (%)
same,Adequate Relief of IBS symptoms: Failure,[1]; [11],187 (60.1%) N (%)
same,Adequate Relief of IBS symptoms: Success,[1]; [11],124 (39.9%) N (%)
same,Adequate Relief of IBS symptom of Bloating: Failure,[1]; [12],17 (54.8%) N (%)
same,Adequate Relief of IBS symptom of Bloating: Success,[1]; [12],14 (45.2%) N (%)
same,Adequate Relief of IBS symptoms: Failure,[1]; [12],16 (51.6%) N (%)
same,Adequate Relief of IBS symptoms: Success,[1]; [12],15 (48.4%) N (%)
same,Adequate Relief of IBS symptom of Bloating: Failure,[1]; [13],170 (60.7%) N (%)
same,Adequate Relief of IBS symptom of Bloating: Success,[1]; [13],110 (39.3%) N (%)
same,Adequate Relief of IBS symptoms: Failure,[1]; [13],171 (61.1%) N (%)
same,Adequate Relief of IBS symptoms: Success,[1]; [13],109 (38.9%) N (%)
same,Adequate Relief of IBS symptom of Bloating: Failure,[1]; [14],190 (60.3%) n (%)
same,Adequate Relief of IBS symptom of Bloating: Success,[1]; [14],125 (39.7%) n (%)
same,Adequate Relief of IBS symptoms: Failure,[1]; [14],190 (60.3%) n (%)
same,Adequate Relief of IBS symptoms: Success,[1]; [14],125 (39.7%) n (%)
same,"Daily abdominal pain <2, responders","[1]; Study 2, <2 for at least 50% of days in a week for at least 2 weeks during PEP",39%
same,"Global IBS symptoms, responders",[1]; [15],41%
same,"IBS symptom of Bloating, responders",[1]; [15],41%
same,"Abdominal Pain reduction of 2 point in mean, responders",[1]; [16],25%
same,"Abdominal Pain reduction of 2 point in median, responders",[1]; [16],41%
same,"Abdominal Pain reduction of 3 point in mean, responders",[1]; [16],6% vs 7%
same,"Abdominal Pain reduction of 3 point in median, responders",[1]; [16],21%
same,"Overall reduction of mean weekly abdominal pain by >=25%, responders",[1]; [16],58%
same,"Overall reduction of mean weekly abdominal pain by >=50%, responders",[1]; [16],35%
same,"Overall reduction of mean weekly abdominal pain by >=75%, responders",[1]; [16],14%
same,"Overall reduction of median weekly abdominal pain by >=25%, responders",[1]; [16],62%
same,"Overall reduction of median weekly abdominal pain by >=50%, responders",[1]; [16],44%
same,"Overall reduction of median weekly abdominal pain by >=75%, responders",[1]; [16],20%
same,"Abdominal pain reduction of 1 point in mean, responders","[1]; Study 2, weekly mean vs baseline for at least 2 weeks during PEP",52%
same,"Abdominal pain reduction of 1 point in median, responders","[1]; Study 2, weekly median vs baseline for at least 2 weeks during PEP",62%
same,% with decrease in SF (stool frequency),"[1]; Week 1, Rifaximin 550 mg TID",14.4%
same,% with decrease in SF (stool frequency),"[1]; Week 2, Rifaximin 550 mg TID",20.6%
same,% with decrease in SF (stool frequency),"[1]; Week 3, Rifaximin 550 mg TID",22.2%
same,% with decrease in SF (stool frequency),"[1]; Week 4, Rifaximin 550 mg TID",21.6%
same,% with decrease in SF (stool frequency),"[1]; Week 5, Rifaximin 550 mg TID",25.7%
same,% with decrease in SF (stool frequency),"[1]; Week 6, Rifaximin 550 mg TID",22.9%
same,% with decrease in SF (stool frequency),"[1]; Week 7, Rifaximin 550 mg TID",23.8%
same,% with decrease in SF (stool frequency),"[1]; Week 8, Rifaximin 550 mg TID",24.4%
same,% with decrease in SF (stool frequency),"[1]; Week 9, Rifaximin 550 mg TID",25.4%
same,% with decrease in SF (stool frequency),"[1]; Week 10, Rifaximin 550 mg TID",26.7%
same,% with decrease in SF (stool frequency),"[1]; Week 11, Rifaximin 550 mg TID",25.4%
same,% with decrease in SF (stool frequency),"[1]; Week 12, Rifaximin 550 mg TID",27.0%
same,Subjects with skin or subcutaneous tissue disorders,[2]; 550 mg rifaximin TID,1.3%
same,"Early discontinuation of study, primary reason Adverse Event/Serious Adverse Event","[2]; Rifaximin 550 mg TID, randomized subjects (316)",0 n (%)
